This is an account of results in patent US20210299044A1, “SYSTEMS AND METHODS FOR DELIVERY OF DRUGS AND OTHER SUBSTANCES COMPRISING DEEP EUTECTIC SOLVENTS” (Novilla Pharmaceuticals, Inc., priority 2018, published 2021).

Each structure is given as a SMILES string.

For data set [1] the following is noted: values stated in description, no method given; cited from earlier work.
A short description of data set [2]: Hydrolysis of aspirin in choline chloride/urea deep eutectic solvent, determined using HPLC. The format is physicochemical. The method, then: In this example, an aspirin formulation was prepared using choline chloride and urea. In this example, choline chloride was heated in an oven at 65° C. for 10 hours. Then, 1 part choline chloride (by volume) was added to 2 parts urea in a beaker. The beaker was sealed with parafilm and the choline chloride and urea allowed to mix to form a deep eutectic solvent (DES). Next, the mixture was passed through a 4A 8-12 mesh molecular sieve, and stirred overnight, to form anhydrous DES.
50 mg/ml of aspirin was then added to the DES. […] The hydrolysis was determined using HPLC.
It is believed that heating the choline chloride removes water.

`CN(C)CCc1c[nH]c2ccc(CS(=O)(=O)N3CCCC3)cc12` [almotriptan]: the pKa in data set [1] is 8.77.

In the case of `CC(=O)Oc1ccccc1C(=O)O` [aspirin, acetylsalicylic acid], the “aspirin found to have hydrolyzed” value in data set [2] (50 mg/ml aspirin in anhydrous DES (1 part choline chloride : 2 parts urea by volume), choline chloride heated at 65° C. for 10 hours, molecular sieve, HPLC) worked out at 1%. For the same compound, the “aspirin found to hydrolyze” value in data set [2] (comparison: choline chloride and urea mixed without heating the choline chloride, same procedure otherwise) is listed as “over 8%”.

As for `CN[C@@H]1CCc2[nH]c3ccc(C(N)=O)cc3c2C1` [frovatriptan], the pKa in data set [1] is on record as 17.27.
